Measurements: patent publication US8497123B2, “Sterol glucoside toxins” (priority 2000, dated 2013)
Entries after “also recorded” stand apart in the source; their conditions may differ. Where two headings read alike, the source gives them in different places.

Key:
[1] = system: adult rat neocortex cortical wedges; format: cell-based; settings: for field potential response with AMPA antagonist NBQX: co-application of NBQX or other AMPA antagonists; for field potential response: cortical wedge, Mg2+-free buffer; for field potential response with NMDA receptor antagonists (AP5, kynurenate, MK801): co-application of NMDA antagonist
Procedure: Cortical ‘wedges’ were prepared as described previously (Shaw et al., 1996). In brief, animals were anesthetized with CO2, decapitated, and a cortical block rapidly removed and placed in cold Krebs-Henseleit buffer containing (in mM): NaCl 124, KCl 3.3, NaHCO3 25, glucose 10, KH2PO4 1.2, CaCl2 2.4, and MgSO4 1.2, bubbled with 5% CO2/95% O2, pH 7.4. The cortical block was sectioned into […] thick coronal slices using a Vibratome (Campden Instruments) and the slices cut into pie shaped wedges in which the white matter formed the narrow edge of the wedge. Each wedge was placed on a net across a grease gap between two fluid filled chambers. The cortical side of the wedge was bathed (at room temperature, approx. 25° C.) in buffer lacking Mg^2+; the callosal portion was bathed in buffer containing Mg^2+ to minimize neural activity. Field potentials were differentially recorded between the two chambers using two Ag/AgCl electrodes. Recordings from up to 6 wedges, each in individual chambers, could be made simultaneously for each experiment. The wedges were continuously perfused on the cortical side with oxygenated, Mg^2+-free buffer using a gravity feed system. Using this system, drugs could be rapidly substituted for control media to examine response characteristics. Wedges typically survived for up to 8 hrs. Responses were recorded on LabView™ after amplification and A/D conversion and the traces were charted in Excel™ for Windows™. Statistical analysis of peak response amplitude was performed by one-way ANOVA using Bonferroni's post test with GraphPad Prism™.

rat cortical slices [2] = settings: for LDH release (cell death) / LDH release in presence of AP5 / NMDA antagonists: rat cortical slices; for LDH release (cell death): 1 hr at 37° C.; for LDH release in presence of AP5 / NMDA antagonists: plus AP5
Procedure: Cortical slices were prepared as described above in the glutamate release experiments and placed in tissue culture wells containing Krebs-Heinsleight buffer supplemented with 0.0004% H2O2 and 1 mg/mL glucose. […] For additional comparison and to establish the limits of the method, some slices were freeze-thawed to kill all the cells. Alternatively, some slices were incubated in buffer containing 1.2 mM Mg^2+ in order to diminish spontaneous neural activity. At the end of the 1 hr incubation period, 3 samples (100 μl of buffer, each sample) were taken from each well. LDH assays were performed on these samples using a LDH diagnostic kit (Sigma) following the manufacturer's protocol with some modifications. In brief, 0.5 ml of pyruvate solution was mixed with 0.5 mg pre-weighed NADH. 100 μl of slice medium (free of slices) was added to the mixture and incubated for 30 min at 37° C. 0.5 ml of Sigma coloring reagent (2, 4-dinitrophenylhydrazine in HCl, 2 mg/ml) was added to develop the color and the mixture was incubated for 20 min at room temperature. 5 ml of 0.4 N NaOH were added to each tube. After 5 min, optical density was read at 440 nm. Standard curves were prepared for each assay using different concentrations of pyruvate solution (0-960 units). LDH activity (in International Units) was calculated from the standard curve and normalized by total protein content of each slice as determined by the Lowry protein assay (Peterson, 1979). One International Unit represents the amount of enzyme required to convert 1 μmol of substrate/minute at room temperature.
(§1) Data for LDH and glutamate release experiments were analyzed for significance by one way ANOVA using Dunnett's and Bonferroni's post tests with GraphPad Prism™.

[3] = system: human cortical astrocytes; format: cell-based; settings: for apoptotic cell loss (cell density, caspase-3): cortical astrocytes on coverslips
Procedure: FIG. 5: Caspase-3 labeling of human cortical astrocytes in tissue culture. Fetal human telencephalic astrocytes were grown to confluency and then exposed to NMDA, BSSG, cholesterol glucoside (CG), or hydrogen peroxide (H2O2) for various periods. […] At longer time points, the overall numbers of cells in these conditions declined.
We have raised cortical astrocytes on coverslips in culture, exposing them to […], or cholesterol glucoside. Cell loss was measured directly by cell density measurements; apoptosis was measured by staining cells for caspase-3 labeling.

rat cortical slices [4] = format: cell-based
Procedure: Brain slices were taken from cortical blocks in which all subcortical tissue had been removed. […] slices were cut using a modified slice cutter (Van Huizen et al., 1989). Slices were rinsed twice for 5 min in Mg^+2 containing Krebs-Henseleit buffer pH 7.4. Incubation media consisted of 100 μM cold glutamate, 20 μM AP5 and 10 μM DNQX, the latter NMDA or AMPA antagonists, respectively. 10 nM of [^3H]-glutamate was added to the mixture and incubated for 1 hr at 37° C. under in oxygenated atmosphere (O2/CO2=95/5%). Experimental treatments were performed in […] Mg^+2 free buffer placed in tissue culture wells containing different concentrations of MSO or isolated BSSG fractions of cycad flour. Slices were removed at the end of incubation period and the supernatant removed for scintillation counting. The supernatant fractions were placed in scintillation vials containing NEN Formula 989 for a minimum of 12 hrs before being counted in a Beckman LS6000 scintillation counter. Results were normalized to the dpm counts of respective controls.
as §1

Rats = settings: rats fed MSO
Procedure: Terminal deoxynucleotidyl transferase (TdT) mediated dUTP-digoxigenin (DIG) nickend labeling (TUNEL) was carried out using an Intergen ApopTag Plus peroxidase kit using the manufacturer's protocol adapted from Gavrieli et al. (1992) with some modifications. […] Briefly, 20 μM thick coronal sections were cut on a cryostat then fixed in 1% paraformaldehyde at room temperature for 2 days. […] After rinsing with PBS, the sections were then exposed to 11 μL/cm^2 working strength of TdT enzyme for 1 hr at 37° C. After washing in PBS, 15 μL/cm^2 of anti-digoxigenin-peroxidase was applied for 30 min in a humidified chamber at room temperature. Colour was developed by adding 125 μl DAB substrate working solution for 6 min. Slides were counter-stained with methyl green for 25 minutes at room temperature. Positive apoptosis controls were generated by pre-incubating sections with DNAase (Sigma).

[5] = fetal human telencephalic astrocytes, vs. control (DMEM)

## Cc1onc(O)c1CC(N)C(=O)O (stereo not drawn) [AMPA, α-amino-3-hydroxy-5-methyl-4-isoxazolepropionic acid]
[1]
  field potential response with AMPA antagonist NBQX: blocked

## CC[C@H](CC[C@@H](C)[C@H]1CC[C@H]2[C@@H]3CC=C4C[C@@H](O[C@@H]5O[C@H](CO)[C@@H](O)[C@H](O)[C@H]5O)CC[C@]4(C)[C@H]3CC[C@]12C)C(C)C [BSSG, beta-sitostrol-beta-D-glucoside (5-cholesten-24b-ethyl-3b-ol-D-glucoside)]
[1]; bath application
  field potential response: qualitative similarity
Rat cortical slices [2]
  LDH release (cell death): qualitative similarity
[3]
  apoptotic cell loss (cell density, caspase-3): time-dependent apoptotic cell loss
[3]; [5]
  caspase-3 positive labeling: significant caspase-3 positive labeling

## OO [H2O2, hydrogen peroxide]
Rat cortical slices [2]
  effect on LDH release: did not affect
[3]; human
  caspase-3 positive labeling: significant caspase-3 positive labeling

## CS(=N)(=O)CC[C@H](N)C(=O)O (stereo partly shown) [MSO, methionine sulfoximine]
[1]; bath application, cortical wedge from adult rat
  concentration at which depolarizing field potentials begin: approx. 50 μM
[1]; bath application
  field potential response: depolarizing field potentials
[1]
  field potential response with AMPA antagonist NBQX: not blocked
  field potential response with NMDA receptor antagonists (AP5, kynurenate, MK801): blocked
Rat cortical slices [2]
  LDH release (cell death): increased cell death
  LDH release in presence of AP5 / NMDA antagonists: blocked
Rat cortical slices [4]; calcium 0 (L) or 2 mM (H)
  calcium dependence of [3H]-glutamate release: calcium dependent
Rat cortical slices [4]; rat cortical slices
  preloaded [3H]-glutamate release: significantly increased
Rat cortical slices [4]; rat cortical slices, plus AP5
  [3H]-glutamate release in presence of AP5: blocked
Rats
  apoptosis in CNS: evidence of apoptosis

## CN[C@H](CC(=O)O)C(=O)O [NMDA, N-methyl-D-aspartate]
[1]
  field potential response with NMDA receptor antagonists (AP5, kynurenate, MK801): blocked
Rat cortical slices [2]
  LDH release (cell death): increased cell death
  LDH release in presence of AP5 / NMDA antagonists: attenuated; also recorded: blocked
[3]; [5]
  caspase-3 positive labeling: significant caspase-3 positive labeling

## C[C@@H]1O[C@@H](O[C@H]2C[C@@H](O)[C@]3(CO)[C@H]4[C@H](O)C[C@]5(C)[C@@H](C6=CC(=O)OC6)CC[C@]5(O)[C@@H]4CC[C@]3(O)C2)[C@H](O)[C@H](O)[C@H]1O [Ouabain, ouabain]
[1]; bath application
  field potential response: small hyperpolarizing responses
Rat cortical slices [2]
  LDH release (cell death): little LDH release

## CC(C)CCC[C@@H](C)[C@H]1CC[C@H]2[C@@H]3CC=C4C[C@@H](O[C@@H]5O[C@H](CO)[C@@H](O)[C@H](O)[C@H]5O)CC[C@]4(C)[C@H]3CC[C@]12C [cholesterol glucoside, 5-cholesten-3b-ol-3b-D-glucoside]
[1]; bath application
  field potential response: qualitatively similar to β-sitosterol-β-D-glucoside
Rat cortical slices [2]
  LDH release (cell death): qualitatively similar to β-sitosterol-β-D-glucoside
[3]
  apoptotic cell loss (cell density, caspase-3): time-dependent apoptotic cell loss
[3]; [5]
  caspase-3 positive labeling: significant caspase-3 positive labeling

## CC(C)CCC[C@@H](C)[C@H]1CC[C@H]2[C@@H]3CC=C4C[C@@H](O)CC[C@]4(C)[C@H]3CC[C@]12C [cholesterol]
[1]; bath application
  field potential response: without effect
Rat cortical slices [2]
  LDH release (cell death): without effect

## CO[C@H]1[C@@H](O)[C@@H](C)O[C@@H](O[C@H]2CC[C@]3(C)[C@H]4CC[C@]5(C)[C@@H](C6=CC(=O)OC6)CC[C@]5(O)[C@@H]4CC[C@]3(O)C2)[C@@H]1O [emicymarin]
[1]; bath application
  field potential response: small hyperpolarizing responses
Rat cortical slices [2]
  LDH release (cell death): little LDH release

## C=C(C)[C@H]1CN[C@H](C(=O)O)[C@H]1CC(=O)O [kainic acid]
[3]
  apoptotic cell loss (cell density, caspase-3): time-dependent apoptotic cell loss

## CC[C@H](CC[C@@H](C)[C@H]1CC[C@H]2[C@@H]3CC=C4C[C@@H](O)CC[C@]4(C)[C@H]3CC[C@]12C)C(C)C [β-sitosterol agylcone, beta-sitosterol (stigmasta-5-en-3beta-ol)]
[1]; bath application
  field potential response: without effect
Rat cortical slices [2]
  LDH release (cell death): without effect
